Data: ChEMBL document CHEMBL6153127, “Cyclodepsipeptides and Fatty Acid Lactones from the Freshwater-Derived Fungus, Talaromyces gwangjuensis, and Their Potential as Autophagy Activators” (J Nat Prod, 2025)
The source made the active and inactive calls. No cut-off for these calls is given here.

Tests used:
Assay type in all cases: functional, cell-based
HEK293-A [1] = assay: Cytotoxicity against HEK293-A cells expressing GFP-tagged LC3 assessed as cell viability at 10 uM incubated for 24 hrs by MTT assay; conditions: Homo sapiens
HEK293-A [2] = assay: Regulation of autophagy in HEK293-A cells expressing GFP-tagged LC3 assessed as increase in green fluorescence at 10 uM incubated for 24 hrs by confocal microscopy; conditions: Homo sapiens
IMR-90 [3] = assay: Induction of autophagy in human IMR-90 cells expressing GFP-mCherry-tagged LC3 assessed as increase in red puncta at 10 uM incubated for 24 hrs by DAPI staining based confocal microscopy
IMR-90 [4] = assay: Induction of autophagic flux in human IMR-90 cells expressing GFP-mCherry-tagged LC3 assessed as accumulation of LC3B-II incubated for 6 hrs in presence of chloroquine by Western blot analysis; conditions: dose 1-20 µM

SMILES | Activity (HEK293-A [1]) | Activity (HEK293-A [2]) | Activity (IMR-90 [3]) | Activity (IMR-90 [4])
CCCCCCCCCCCC[C@H](O)[C@]1(O)[C@@H](COC)C(=O)O[C@H]1C(=O)O | inactive | – | – | –
CCCCCCCC[C@@H](COC(C)=O)[C@@H]1OC(=O)[C@H](CO)NC(=O)[C@H](C(=O)c2c[nH]c3ccccc23)NC(=O)[C@@H](CCC(=O)OCC)NC(=O)[C@H]1C | inactive | Active | – | –
CCCCCCCC[C@@H]1COC(=O)[C@H](CO)NC(=O)[C@H](C(=O)c2c[nH]c3ccccc23)NC(=O)[C@@H](CCC(=O)O)NC(=O)[C@@H](C)[C@H]1O | inactive | Active | – | –
CCCCCCCC[C@@H](COC(C)=O)[C@@H]1OC(=O)[C@H](CO)NC(=O)[C@H](C(=O)c2c[nH]c3ccccc23)NC(=O)[C@@H](CCC(=O)O)NC(=O)[C@H]1C | inactive | Active | Active | Dose-dependent-effect
C=C1C(=O)O[C@H](CCCCCCCCCC)[C@H]1[C@@H](O)C(=O)OCC | inactive | – | – | –
CCCCCCCC[C@@H](C)[C@@H]1OC(=O)[C@H](CO)NC(=O)[C@H](Cc2c[nH]c3ccccc23)NC(=O)[C@@H](CCC(=O)O)NC(=O)[C@H]1C | inactive | Active | Active | –
CCCCCCCC[C@@H](C)[C@@H]1OC(=O)[C@H](CO)NC(=O)[C@H](C(=O)c2c[nH]c3ccccc23)NC(=O)[C@@H](CCC(=O)OCC)NC(=O)[C@H]1C | inactive | Active | – | –
C=C1C(=O)O[C@@H](C(=O)O)[C@@H]1CCCCCCCCCCC | Active | – | – | –
O=C(c1c[nH]c2ccccc12)C(O)CO (stereo not drawn) | inactive | – | – | –
CCCCCCCC[C@@H](C)[C@@H]1OC(=O)[C@H](CO)NC(=O)[C@H](C(=O)c2c[nH]c3ccccc23)NC(=O)[C@@H](CCC(=O)O)NC(=O)[C@H]1C | inactive | Active | – | –
CCCCCCCCCC[C@H](O)C1=C(COCC)C(=O)OC1 | inactive | – | – | –
CCCCCCCC[C@@H](C)[C@@H]1OC(=O)[C@H](CO)NC(=O)/C(=C/c2c[nH]c3ccccc23)NC(=O)[C@@H](CCC(=O)O)NC(=O)[C@H]1C | inactive | Active | Active | –
